In US20240181022A1, “AMURINS LYSINS, AND LYSIN-ANTIMICROBIAL PEPTIDE (AMP) CONSTRUCTS ACTIVE AGAINST GRAM-NEGATIVE BACTERIA” (priority 2021, published 2024):
Read-outs that look alike come from different tables or passages of the source. Where no end group is shown, it is not given here. [ ]: non-standard residue; d: D form.

Key:
P. apista = test: MIC by broth microdilution against P. apista; type: cell-based, Pandoraea apista; settings: P. apista isolates
Protocol: (§1) MIC values were determined using a modification of the standard broth microdilution reference method defined by the Clinical and Laboratory Standards Institute (CLSI), CLSL. 2015. Methods for Dilution Antimicrobial Susceptibility Tests for Bacteria That Grow Aerobically; Approved Standard-10th Edition. Clinical and Laboratory Standards Institute, Wayne, PA. The modification was based on the replacement of Mueller Hinton Broth with either CAA media (with and without NaCl) or CAA supplemented with 2.5% human serum. MIC is the minimum concentration of peptide sufficient to suppress at least 80% of the bacterial growth compared to control.
(§2) Based on these nine most prevalent strains, direct lytic agents, including GN370, AM1, AM2, and AM3, were evaluated against various isolates from each of the 9 strains. MICs and MBECs (Example 3) were determined, and a sputum inhibition test was conducted, as described below in Example 5.
(§3) The MICs for were determined as described below using the broth microdilution method for meropenem, GN370, AM1, AM2, and AM3. The results are shown below in Tables 8-12.

[1] = system: Gram-negative bacteria (including P. aeruginosa, E. cloacae, K. pneumoniae, E. coli, and A. baumannii); test: Inner membrane depolarization (diSC3-5 release); type: cell-based; settings: equivalent or superior to melittin, LL37, RI-18, and PMBN
Excerpt: The mechanism of action of Chp peptides disclosed herein can also be evaluated by measuring the depolarization of the inner membrane of Gram-negative bacteria, including MDR and XDR strains. The inner membrane comprises […] phospholipids such as cardiolipin, phosphatidylglycerol, and phosphatidylserine. This creates a net negative charge at physiological pH, which is believed to enhance the binding of cationic peptides, including the Chp peptides disclosed herein. Upon permeabilization of the outer membrane, the ability of Chp peptides to induce dissipation of the cytoplasmic membrane electrical potential gradient (Ay) may be examined, for example by following the release of 3,3′-dipropylthiadicarbocyanine (diSC3-5) as a function of time compared to an untreated control. DiSC3-5 is a fluorophore that is a caged cation concentrated within the bacterial inner membrane and under the influence of the bacterial membrane electrical potential gradient. At high concentrations, diSC3-5 self-quenches, leading to the suppression of fluorescence. When the inner membrane deteriorates or becomes leaky for cations, including protons, the Δψ dissipates, which leads to a release of diSC3-5 and a subsequent increase in fluorescence. […] Without wishing to be bound by theory, it is believed that the adsorption and binding of Chp peptides to the inner membrane and insertion into the lipid bilayer results in membrane permeabilization and pore/ion channel formation, which is concomitant with the collapse of the membrane's electrical potential.

M. smegmatis = test: MIC against M. smegmatis; type: cell-based, Mycobacterium smegmatis; settings: M. smegmatis (MC 155); CAAT media
B. multivorans [2] = system: B. multivorans
Protocol: (§4) Biofilms are then washed and treated with e.g., a 2-fold dilution series of the lysin in TSBg at e.g., 37° C. for 24 hours. After treatment, wells are washed, air-dried at e.g., 37° C. and stained with e.g., 0.05% crystal violet for 10 minutes.
(§5) The antibiofilm activity of GN370, AM1, AM2, and AM3 was evaluated against various Gram-negative bacteria prevalent in cystic fibrosis patients, including P. aeruginosa, S. maltophilia, and A. xylosoxidans.
(§6) The MBEC (after 2-hour treatments) was determined as described in Jones and Wozniak, PsI Produced by Mucoid Pseudomonas aeruginosa Contributes to the Establishment of Biofilms and Immune Evasion, Am. […] Microbiol.

A. xylosoxidans [3] = system: A. xylosoxidans
Protocol: as §4, §5, §6

S. maltophilia [4] = settings: for antibiofilm activity (MBEC) against S. maltophilia: 2-hour treatments
Protocol: as §4, §5, §6

B. multivorans [5] = test: MIC by broth microdilution against B. multivorans; type: cell-based, Burkholderia multivorans; settings: B. multivorans isolates
Protocol: as §1, §2, §3

A. xylosoxidans [6] = test: Time-kill assay in cystic fibrosis patient sputum, A. xylosoxidans; type: cell-based, Achromobacter xylosoxidans; settings: for effect of sputum on antibacterial activity: 10% CF sputum vs no sputum; for killing by 1 hour, maintained at 24 hours: time-kill
Excerpt: Sputum from 5 cystic fibrosis patients was pooled. The resulting mixture was not filtered, as it was very dense and not amenable to sterilization by filtration. Sputum is known to be a complex mixture of DNA, carbohydrates, and lipids ([…], 2016). As used herein, the term “sputum” refers to the mucus present in the respiratory tract of an animal, such as a human. Sputum may increase in thickness due to the irritation or infection, including bacterial infection, and in some instances, may be expelled by the animal while coughing. In certain instances, cystic fibrosis may be characterized by the presence of a thick, sticky mucus or sputum present in the lungs of cystic fibrosis patients. The activity of GN370, AM1, AM2, AM3, and meropenem was determined in the sputum using a time-kill assay format as disclosed in Zhang et al., Antimicrobial peptide therapeutics for cystic fibrosis, Antimicrobial Agents Chemother. 2005; 49(7):2921-2927. […] Untreated controls were included in addition to pretreatment plating (t=0) for a baseline CFU determination. Activity was also determined in the absence of sputum for comparison to activity observed in the presence of sputum.

B. cenocepacia = type: cell-based, Burkholderia cenocepacia
Protocol: The MBEC (after 2-hour treatments) was determined as described in Jones and Wozniak, PsI Produced by Mucoid Pseudomonas aeruginosa Contributes to the Establishment of Biofilms and Immune Evasion, Am. Soc. Microbiol. 2017, 8(3):e00864-17. Meropenem and tobramycin were included as controls and were both poorly active, with MBEC90 values of >256 μg/mL (data not shown).

A. ruhlandii = test: MIC by broth microdilution against A. ruhlandii; type: cell-based, Achromobacter ruhlandii; settings: A. ruhlandii isolates
Protocol: as §1, §2, §3

S. maltophilia [7] = settings: for MIC: S. maltophilia test organism of the sputum time-kill assay; for activity (MIC) against S. maltophilia isolates: all tested isolates, Tables 8-12
[8] = S. maltophilia isolates, in µg/mL

Substance: MRLKMARRRYRLPRRRSRRLFSRTALRMHPRNRLRRIMRGGIRF [AM1]
- MIC50 (P. apista): 64 µg/mL
- MIC90 (P. apista): > 128 µg/mL
- inner membrane depolarization (diSC3-5) [1]: dose-dependent increase in membrane depolarization
- MIC (M. smegmatis): 4 µg/mL
- MBEC50 (B. multivorans [2]): 2 µg/mL
- MBEC90 (B. multivorans [2]): 4 µg/mL
- MBEC Range (B. multivorans [2]): 2 to 4 µg/mL
- antibiofilm activity (MBEC) against B. multivorans (B. multivorans [2]; 2-hour treatments): highly active
- MBEC50 (A. xylosoxidans [3]): 0.5 µg/mL
- MBEC90 (A. xylosoxidans [3]): 1 µg/mL
- MBEC Range (A. xylosoxidans [3]): 0.125 to 2 µg/mL
- antibiofilm activity (MBEC) against A. xylosoxidans (A. xylosoxidans [3]; 2-hour treatments): highly active
- MBEC50 (S. maltophilia [4]): 1 µg/mL
- MBEC90 (S. maltophilia [4]): 2 µg/mL
- MBEC Range (S. maltophilia [4]): 0.25 to 2 µg/mL
- antibiofilm activity (MBEC) against S. maltophilia (S. maltophilia [4]): highly active
- MIC50 (B. multivorans [5]): 128 µg/mL
- MIC90 (B. multivorans [5]): > 128 µg/mL
- effect of sputum on antibacterial activity (A. xylosoxidans [6]): none of GN370, AM1, AM2, and AM3 was inhibited
- Log10 CFU/mL of sputum (A. xylosoxidans [6]; absence of sputum, 1 hr): 2.3 Log10 CFU/mL of sputum
- Log10 CFU/mL of sputum (A. xylosoxidans [6]; absence of sputum, 3 hr): 2.3 Log10 CFU/mL of sputum
- Log10 CFU/mL of sputum (A. xylosoxidans [6]; absence of sputum, 24 hr): 2.3 Log10 CFU/mL of sputum
- Log10 CFU/mL of sputum (A. xylosoxidans [6]; presence of 10% sputum, 1 hr): 2.3 Log10 CFU/mL of sputum
- Log10 CFU/mL of sputum (A. xylosoxidans [6]; presence of 10% sputum, 3 hr): 2.3 Log10 CFU/mL of sputum
- Log10 CFU/mL of sputum (A. xylosoxidans [6]; presence of 10% sputum, 24 hr): 2.3 Log10 CFU/mL of sputum
- killing by 1 hour, maintained at 24 hours (A. xylosoxidans [6]): complete killing
- MBEC50 (B. cenocepacia): 16 µg/mL
- MBEC90 (B. cenocepacia): 32 µg/mL
- MBEC Range (B. cenocepacia): 2 to 32 µg/mL
- MIC50 (A. ruhlandii): 1 µg/mL
- MIC90 (A. ruhlandii): 4 µg/mL
- MIC Range (A. ruhlandii; in µg/mL): 0.125-8
- AM1 MIC50 (S. maltophilia [7]): 0.5 µg/mL
- AM1 MIC90 (S. maltophilia [7]): 1 µg/mL
- MIC50 (S. maltophilia [7]): 0.5 µg/mL
- MIC90 (S. maltophilia [7]): 1 µg/mL
- MIC Range (S. maltophilia [7]; MDR S. maltophilia isolates (n = 8), in µg/mL): 0.5-1
- MIC50 (S. maltophilia [7]; S. maltophilia isolates): 0.5 µg/mL
- MIC90 (S. maltophilia [7]; S. maltophilia isolates): 1 µg/mL
- MIC Range (S. maltophilia [7]; [8]): 0.016-1
- MIC (S. maltophilia [7]): AM1 (MIC = 0.5)
- activity (MIC) against S. maltophilia isolates (S. maltophilia [7]): highly active
- AM1 MIC Range (S. maltophilia [7]; carbapenem-resistant S. maltophilia isolates (n = 23), in µg/mL): 0.016-1

Substance: M[dR]L[dK]MA[dR][dR][dR]Y[dR]LP[dR][dR][dR]S[dR][dR]LFS[dR]TAL[dR]MHP[dR]N[dR]L[dR][dR]IM[dR]GGI[dR]F [AM2]
- MIC50 (P. apista): > 128 µg/mL
- MIC90 (P. apista): > 128 µg/mL
- inner membrane depolarization (diSC3-5) [1]: dose-dependent increase in membrane depolarization
- MIC (M. smegmatis): 0.5 µg/mL
- MBEC50 (B. multivorans [2]): 2 µg/mL
- MBEC90 (B. multivorans [2]): 16 µg/mL
- MBEC Range (B. multivorans [2]): 1 to 16 µg/mL
- MBEC50 (A. xylosoxidans [3]): 2 µg/mL
- MBEC90 (A. xylosoxidans [3]): 8 µg/mL
- MBEC Range (A. xylosoxidans [3]): 0.125 to 32 µg/mL
- MBEC50 (S. maltophilia [4]): 1 µg/mL
- MBEC90 (S. maltophilia [4]): 2 µg/mL
- MBEC Range (S. maltophilia [4]): 0.125 to 4 µg/mL
- antibiofilm activity (MBEC) against S. maltophilia (S. maltophilia [4]): highly active
- MIC50 (B. multivorans [5]): > 128 µg/mL
- MIC90 (B. multivorans [5]): > 128 µg/mL
- effect of sputum on antibacterial activity (A. xylosoxidans [6]): none of GN370, AM1, AM2, and AM3 was inhibited
- Log10 CFU/mL of sputum (A. xylosoxidans [6]; absence of sputum, 1 hr): 3.3 Log10 CFU/mL of sputum
- Log10 CFU/mL of sputum (A. xylosoxidans [6]; absence of sputum, 3 hr): 2.3 Log10 CFU/mL of sputum
- Log10 CFU/mL of sputum (A. xylosoxidans [6]; absence of sputum, 24 hr): 2.3 Log10 CFU/mL of sputum
- Log10 CFU/mL of sputum (A. xylosoxidans [6]; presence of 10% sputum, 1 hr): 2.3 Log10 CFU/mL of sputum
- Log10 CFU/mL of sputum (A. xylosoxidans [6]; presence of 10% sputum, 3 hr): 2.3 Log10 CFU/mL of sputum
- Log10 CFU/mL of sputum (A. xylosoxidans [6]; presence of 10% sputum, 24 hr): 2.3 Log10 CFU/mL of sputum
- killing by 1 hour, maintained at 24 hours (A. xylosoxidans [6]): complete killing
- MBEC50 (B. cenocepacia): 16 µg/mL
- MBEC90 (B. cenocepacia): 32 µg/mL
- MBEC Range (B. cenocepacia): 2 to 32 µg/mL
- MIC50 (A. ruhlandii): 2 µg/mL
- MIC90 (A. ruhlandii): 16 µg/mL
- MIC50 (S. maltophilia [7]; S. maltophilia isolates): 0.5 µg/mL
- MIC90 (S. maltophilia [7]; S. maltophilia isolates): 1 µg/mL
- MIC Range (S. maltophilia [7]; [8]): 0.03-2
- MIC (S. maltophilia [7]): AM2 (MIC = 0.5)
- activity (MIC) against S. maltophilia isolates (S. maltophilia [7]): highly active
